The values below come from patent US20140322076A1, “ANTIMICROBIAL COMPOSITION” (priority 2011, published 2014).

Holding throughout (type): cell-based
Experiment [1] concerns Escherichia coli (10536 strain). The experiment can be described thus: Antimicrobial efficacy, 15 seconds contact suspension assay (Examples 1 and 3). The note with it: for NMBS (mean bacterial survival) / NMBS: contact time 15 seconds; for NMBS (mean bacterial survival): phenol and terpineol concentration (% w/v) as given per example, 0 = complete kill, triplicate; for MBC (Minimum Biocidal Concentration): lowest concentration with complete kill after 15 seconds contact, active alone, upper boundary to the MBC; for NMBS: Example 3, gamma-terpineol, concentrations (% w/v) as given per example. On the procedure:
The efficacies of antimicrobial agents can be usefully compared by determining the Minimum Biocidal Concentration (MBC). The MBC is defined as the lowest absolute concentration of the particular active that provides complete kill (zero bacterial growth).
ΣFBC=FBC(component 1)+FBC(component 2)+FBC(component 3)+ . . . etc
such that • ΣFBC≧1 corresponds to additive or antagonistic bactericidal activity • ΣFBC<1 corresponds to synergistic bactericidal activity
Antimicrobial efficacy is tested against a representative pathogenic bacterial organism, Gram negative Escherichia coli. Concentrations of actives are expressed in terms of the percentage weight/volume (% w/v) throughout Example 1.
An overnight culture of Escherichia coli (10536 strain) was prepared in 50 ml total volume of TSB broth, grown for ca. 18 hrs at 37° C. and shaken at 150 rpm. 1 ml of this overnight E. coli culture was transferred to 50 ml of fresh TSB broth and incubated at 37° C. at 150 rpm for ca. 4 hours. This culture was separated into equal volumes and centrifuged at 4000 rpm for 15 minutes, washed with sterile saline (0.85% NaCl), centrifuged once more and re-suspended in saline to give a final concentration of 0.8 OD620 equivalent to about 10^8 cells per millilitre for this particular organism. Here, OD620 indicates the absorbance of a sample in a cuvette of 1.0 cm path length at a wavelength of 620 nm. This bacterial stock was used for assaying against antimicrobial actives (in triplicate).
The following assay describes the testing of 8 materials using 6 dilutions across half of a 96-well micro titre plate (MTP). Using this approach it is possible to assay 16 actives (without replicates) with one full dilution plate, replicating this set up in two halves of the plate columns, 1-6 and 7-12.
1M solutions of the test actives were prepared in dimethylsulphoxide (DMSO).
Aliquots (270 μl) of the materials at 1.11 times the final concentration were dispensed into the wells of the MTP along one column (A1-H1). This MTP was labelled as the “Screening plate”.
In another MTP, labelled as the “Dilution plate”, 270 μl of D/E neutralising solution from DIFCO Composition was added to column 1. The composition of the neutralising solution was as follows: pancreatic digest of casein, 5.0 g/L; Yeast Extract, 2.5 g/L; Dextrose, 10 g/L, sodium thioglycollate, 1.0 g/L, sodium thiosulphate, 6.0 g/L; sodium bisulphite, 2.5 g/L; Polysorbate 80, 5.0 g/L; lecithin 7.0 g/L; bromocresol purple, 0.02 g/L with a pH in the range 7.6±0.2.
270 μl of tryptone diluent solution was added to all the remaining wells of the Dilution MTP (columns 2-6).
Bacterial stock (30 μl) was then added to the prepared 270 μl of the solution of actives in the Screening Plate and mixed, using a multichannel pipette with 8 tips to aspirate and dispense the same volume of bacterial stock in parallel to 8 wells in rows A-H. After a contact time of 15 seconds, the mixtures were quenched by transferring 30 μl volumes of the mixtures into the 270 μl D/E neutralising solution in the prepared dilution plate, using aspiration to mix. After exactly 5 minutes in the D/E neutralising solution, 30 μl volumes were transferred from column 1 to column 2 of the Dilution MTP and mixed, before transferring further 30 μl volumes from column 2 into column 3. This process was repeated serially diluting the bacteria across the plate to column 6.
30 μl volumes from each well in the Dilution MTP were transferred onto pre-labelled segment of Tryptone Soya Agar (TSA) plates starting from the lowest bacterial concentration (highest dilution, column 6) to the highest bacterial concentration (column 1). The TSA plates were allowed to stand for ca. 2 hours so that the 30 μl inocula spots could dry and the plates were then inverted and incubated overnight at 37° C. before enumerating the bacterial colonies at the labelled dilutions to determine the effects of the actives on bacterial growth.

Experiment [2] has as its system Escherichia coli (E. coli - ATCC #10536). As to the kind of experiment: High resolution MBC synergy assay in phosphate buffer containing 35% dipropylene glycol (Example 2). The note with it: for ΣFBC: calculated from Ca/MBCA + Cb/MBCB; for MBC of the component alone (MBCA, MBCB): complete kill in 15 seconds, phosphate buffer, 35% DPG. As for the experimental part: The materials were sourced in the same way as for Example 1. Synergy tests were conducted using standard microtiter plate assays with phosphate buffer containing 35% dipropylene glycol (DPG). […] The MBC plate was inoculated one column at a time with the test microorganism. An aliquot of the inoculated well was transferred at 15 seconds to a plate containing a neutralizing agent (D/E Neutralizing Broth), mixed and held for 5 minutes before being transferred to a growth plate containing trypticase soy broth (TSB). The TSB plate was incubated at 37° C. and read for the presence/absence of growth at 24 hours. […] This microorganism is representative of natural contaminants in many consumer and industrial applications.

Experiment [3] shares this test system. The experiment can be described thus: Automated assessment of efficacy in surfactant base (Example 4). The note with it: for MBC: in 2.85% sodium cocoyl glycinate + 1.85% sodium lauroamphoacetate solution at pH 10; for 15 second bactericidal efficacy (in words): in combination with alpha-terpineol at concentrations lower than their MBC, surfactant formulation; for DeltaOD (450 nm) Mean: OD450 (16 hours) − OD450 (time zero), 2.85% sodium cocoyl glycinate + 1.85% sodium lauroamphoacetate; for DeltaOD (450 nm) Mean / DeltaOD (590 nm) Mean: pH 10; for DeltaOD (450 nm) Mean / DeltaOD (590 nm) Mean / Nrep = No. of replicates showing growth (out of 4): 15 seconds exposure; for DeltaOD (590 nm) Mean: OD590 (16 hours) − OD590 (time zero), same surfactant solution; for Nrep = No. of replicates showing growth (out of 4): surfactant solution pH 10. On the procedure:
In these examples, the efficacy of combinations of isopropylmethylphenols and terpineol were tested in a surfactant cleansing formulation comprising 2.85% sodium cocoyl glycinate and 1.85% sodium lauroamphoacetate. This corresponds to a 50% in use dilution with water of a typical neat formulation containing 5.7% cocoyl glycinate and 3.7% % sodium lauroamphoacetate during hand washing. Solutions were prepared such that the concentrations of the surfactant components and test actives were 1.1 times the final desired concentration in order to allow for dilution with the bacterial inoculum in the test. The solutions were manually adjusted to pH 10.0 by dropwise addition of sodium hydroxide solution, as measured with a pH meter at ambient temperature. Solutions of the isopropylmethylphenols and/or terpineols were prepared at a maximum of 24 hours before testing. The same terpineol was used as in Example 1.
The efficacy of the combinations of the present invention was determined against the same bacterium as in Example 1, Escherichia coli (E. coli—ATCC #10536), at a concentration of approximately 1×10^8 bacteria per mL.
Tests were conducted using standard microtiter plate assays using an automated liquid handling system. 270 μl of the surfactant test solution was pipetted into each well of the microtitre plate (Nunc F Gamma Irradiated 96F untreated microtitre plates of clear polystyrene) and 30 μl of the bacterial suspension was then added. After exactly 15 seconds of bacterial exposure, a 30 μl volume of bacterial cells was withdrawn and transferred to 270 μl of D/E quench solution. After 5 minutes in the D/E quench, the optical density (OD) was measured for each plate in turn at two specific wavelengths (450 nm and 590 nm). These provide a dual check of antimicrobial activity, as the OD450 reading is specific for the yellow colour of D/E quench when bacterial growth is observed, whereas OD590 is specific for the initial purple colour of the D/E quench which is retained if no bacterial growth is observed. After the time zero OD measurements, plates were then incubated at 37° C. overnight (16 hours) before repeating the OD measurements. Delta OD values were calculated by subtracting […] at time=16 hours.
Bacterial growth is observed as an increase in OD450 and a decrease in OD590. To identify antibacterially efficacious systems (those preventing appreciable bacterial growth after incubation), the following threshold changes in OD readings have been adopted: if (1). OD450 increases by less than 0.2 absorbance unit (AU) on incubation and (2). OD590 decreases by less than 0.35 AU on incubation. Conversely, where OD450 increases by more than 0.1 AU and OD590 decreases by more than 0.1 AU after incubation, corresponding to a colour shift from purple to yellow, the test system allows bacterial growth and is not deemed efficacious. Four replicate measurements in the same plate have been made for each test system. The number of replicate wells showing either bacterial growth or no growth is also readily assessed by eye by following the colour change. Thymol and terpineol were tested both alone and in combination for comparison purposes.
In each case, binary mixtures were assessed in the weight to weight ratio isopropylmethylphenol to alpha terpineol of 1:2.5.

`Cc1ccc(C(C)C)c(O)c1` [1:1, thymol]: the “NMBS (mean bacterial survival)” value in experiment [1] was 0 log CFU/ml.

On to `Cc1ccc(C(C)C)c(O)c1` [1:2, thymol], for which the “NMBS (mean bacterial survival)” value in experiment [1] stood at 0 log CFU/ml.

For `Cc1ccc(C(C)C)c(O)c1` [1:3, thymol], the “NMBS (mean bacterial survival)” value in experiment [1] is more than 7 log CFU/ml.

Regarding `CC1=CCC(O)(C(C)C)CC1` (stereo not drawn) [1:4, terpineol], the “NMBS (mean bacterial survival)” value in experiment [1] is given as 0 log CFU/ml.

For the compound `CC1=CCC(O)(C(C)C)CC1` (stereo not drawn) [1:5, terpineol], in experiment [1], the “NMBS (mean bacterial survival)” value is 0 log CFU/ml.

For the compound `CC1=CCC(O)(C(C)C)CC1` (stereo not drawn) [1:6, terpineol], the “NMBS (mean bacterial survival)” value in experiment [1] is on record as 7 log CFU/ml.

Take `CC1=CCC(O)(C(C)C)CC1` (stereo not drawn) [1:7, terpineol]: in experiment [1], the “NMBS (mean bacterial survival)” value worked out at 7 log CFU/ml.

`Cc1cc(O)cc(C(C)C)c1` [1:8, 3-isopropyl-5-methylphenol]: in experiment [1], the “NMBS (mean bacterial survival)” value is listed as 0 log CFU/ml.

In the case of `Cc1cc(O)cc(C(C)C)c1` [1:9, 3-isopropyl-5-methylphenol], the “NMBS (mean bacterial survival)” value in experiment [1] was 7.6 log CFU/ml.

As for `Cc1cc(O)ccc1C(C)C` [1:12, 4-isopropyl-3-methylphenol], in experiment [1], the “NMBS (mean bacterial survival)” value turned out to be 0 log CFU/ml.

On to `Cc1cc(O)ccc1C(C)C` [1:13, 4-isopropyl-3-methylphenol], for which the “NMBS (mean bacterial survival)” value in experiment [1] was found to be 7.6 log CFU/ml.

Consider `Cc1cc(O)cc(C(C)C)c1` [3-isopropyl-5-methylphenol], for which, in experiment [2], the ΣFBC is given as 1.00 and the “MBC of the component alone (MBCA, MBCB)” value is 0.5 weight %. Moreover, in experiment [3], the MBC is reported as more than 0.2 % w/v and the “15 second bactericidal efficacy (in words)” value is “complete kill in all 4 replicates”. In addition, in experiment [1], the “MBC (Minimum Biocidal Concentration)” value amounted to 0.05 % w/v.

`CC(C)=C1CCC(C)(O)CC1` (stereo not drawn) [3:1, gamma-terpineol]: the NMBS in experiment [1] is given as 0 log CFU/ml.

As to `CC(C)=C1CCC(C)(O)CC1` (stereo not drawn) [3:2, gamma-terpineol], the NMBS in experiment [1] amounted to 0 log CFU/ml.

As for `CC(C)=C1CCC(C)(O)CC1` (stereo not drawn) [3:3, gamma-terpineol], the NMBS in experiment [1] is reported as 0 log CFU/ml.

Consider `CC(C)=C1CCC(C)(O)CC1` (stereo not drawn) [3:4, gamma-terpineol], for which the NMBS in experiment [1] was 7.84 log CFU/ml.

For `Cc1cc(O)ccc1C(C)C` [3:5, 4-isopropyl-3-methylphenol], the NMBS in experiment [1] is given as 4.98 log CFU/ml.

In the case of `Cc1cc(O)ccc1C(C)C` [3:6, 4-isopropyl-3-methylphenol], the NMBS in experiment [1] amounted to 7.78 log CFU/ml.

As for `Cc1cc(O)ccc1C(C)C` [3:7, 4-isopropyl-3-methylphenol], in experiment [1], the NMBS stood at 7.79 log CFU/ml.

Turning to `Cc1cc(O)ccc1C(C)C` [4-isopropyl-3-methylphenol], in experiment [3], the MBC is listed as more than 0.2 % w/v and the “15 second bactericidal efficacy (in words)” value is “complete kill in all 4 replicates”. Further, the “MBC (Minimum Biocidal Concentration)” value in experiment [1] was 0.075 % w/v.

For `Cc1cc(O)cc(C(C)C)c1` [4:21, 3-isopropyl-5-methylphenol], in experiment [3], the “DeltaOD (450 nm) Mean” value is −0.57, the “DeltaOD (590 nm) Mean” value is 0.56 and the “Nrep = No. of replicates showing growth (out of 4)” value was determined as 4.

As for `Cc1cc(O)ccc1C(C)C` [4:26, 4-isopropyl-3-methylphenol], in experiment [3], the “DeltaOD (450 nm) Mean” value is reported as −0.46, the “DeltaOD (590 nm) Mean” value amounted to 0.67 and the “Nrep = No. of replicates showing growth (out of 4)” value worked out at 4.

As to `Cc1cc(O)ccc1C(C)C` [4:27, 4-isopropyl-3-methylphenol], in experiment [3], the “DeltaOD (450 nm) Mean” value is −0.48, the “DeltaOD (590 nm) Mean” value turned out to be 0.58 and the “Nrep = No. of replicates showing growth (out of 4)” value is 4.

`CC1=CCC(C(C)(C)O)CC1` (stereo not drawn) [alpha-terpineol]: in experiment [2], the ΣFBC was 1.00 and the “MBC of the component alone (MBCA, MBCB)” value stood at 0.6 weight %. Also, the MBC in experiment [3] is listed as more than 0.5 % w/v. In experiment [1] (0.4% alone to […] in combination with […] w/v 4-isopropyl-3-methylphenol or 3-isopropyl-5-methylphenol), the “reduction of the terpineol concentration required for complete kill” value worked out at 2.7 fold.

Consider `CC(C)=C1CCC(C)(O)CC1` (stereo not drawn) [gamma-terpineol], for which the “MBC (Minimum Biocidal Concentration)” value in experiment [1] is on record as 0.3 % w/v.

Take `Cc1ccc(C(C)C)c(O)c1` [thymol, thymol (2-isopropyl-5-methylphenol)]: in experiment [3], the MBC is listed as more than 0.2 % w/v. In addition, in experiment [1], the “MBC (Minimum Biocidal Concentration)” value was found to be 0.05 % w/v.
